11 compounds from patent US7635701B2 (Glaxo Group Limited, priority 2002, dated 2009) can be followed below.

One may read the EC50 as the concentration that produces a half-maximal response. A higher EC50 goes with a need for much substance.

In data set [1] the target is human cannabinoid CB2 receptor (Homo sapiens, UniProt P34972). In words: Cannabinoid CB2 receptor agonist activity in yeast cells (FDGlu fluorescence).
Data set [2] in a line: Particle size analysis on Lecotrac laser particle size analyser, pre and post nanomilling. It counts as physicochemical. To be noted: for Post-nanomilling 50% percentile particle size / Post-nanomilling 95% percentile particle size: after wet milling in aqueous 1.5% HPMC with YTZ beads; for Pre-nanomilling 50% percentile particle size / Pre-nanomilling 95% percentile particle size: starting material before nanomilling. On the procedure: The particle size of the solid particles of compound (1) may be determined by laser diffraction. A suitable machine for determining particle size by laser diffraction is a Lecotrac laser particle size analyser, using an HELOS optical bench fitted with a QUIXEL dispersion unit.
2.5 g of compound of example 176 was weighed into a […] centrifuge tube. 25 ml of 0.3 mm yttrium zirconium (YTZ) ceramic milling beads (Manufacturer: Tosoh, Japan; Supplier: Glen Creston Ltd., batch no. 5280130030)”) was weighed into a 50 ml milling pot. 22.5 ml of aqueous 1.5% HPMC was measured with a measuring cylinder into a 100 ml beaker. This solution was homogenised for 3 seconds with an Ultra Turrax T25 homogeniser. Approximately 200 mg of the 2.5 g of the compound was added to the HPMC solution and homogenised at the lowest speed setting until the powder was wetted. This was repeated until all the compound had been added. The speed of the homogeniser was then increased to maximum and the suspension was homogenised for a further 3 minutes. This suspension was allowed to stand for 30 minutes in order to allow some of the foam to disperse. The suspension was then poured into the 50 ml pot containing the YTZ milling beads, stirring to release any trapped air. The lid to the pot was then fitted and the pot sealed with some Nesco film. This procedure was repeated for a second 50 ml nanomilling pot and both pots were placed on a Retsch mill and milled for a total of 8 hours.
The milling pots were removed from the Retsch mill and left to cool and for the foam to disperse overnight. In the morning the suspension and bead mixture was passed through a 200μ, 40 mm diameter screen. The contents from each 50 ml pot was washed with aqueous 1.5% HPMC: 10% of the original suspension volume (i.e. 2.5 ml). The suspension from the 2 pots was combined to make 1 batch. The suspension obtained from the method above was named the concentrate.
A particle size analysis was carried out on the Lecotrac laser particle size analyser. The results are shown in Table B along with the results from the starting material for comparison:
Compounds of Examples 19, 34, 194, 217, 228, 247 were nanomilled on a 1 g scale using the process described above and the particle size analysed pre and post nanomilling.

human cannabinoid CB2 receptor, sequence (P34972 whole entry): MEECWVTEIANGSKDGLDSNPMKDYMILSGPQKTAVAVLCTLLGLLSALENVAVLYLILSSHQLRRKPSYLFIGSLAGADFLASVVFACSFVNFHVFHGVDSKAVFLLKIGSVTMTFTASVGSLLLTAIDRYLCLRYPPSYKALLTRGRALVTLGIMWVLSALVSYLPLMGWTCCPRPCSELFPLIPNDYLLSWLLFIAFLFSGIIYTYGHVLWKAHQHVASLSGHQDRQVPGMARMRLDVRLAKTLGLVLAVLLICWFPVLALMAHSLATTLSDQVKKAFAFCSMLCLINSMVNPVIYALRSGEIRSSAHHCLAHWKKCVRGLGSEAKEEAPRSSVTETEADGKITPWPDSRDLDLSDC

Turning to `O=C(NCC1CCCO1)c1cnc(Nc2cccc(F)c2)nc1C(F)(F)F` (stereo in doubt) [Example 73, 2-(3-Fluoro-phenylamino)-4-trifluoromethyl-pyrimidine-5-carboxylic acid [(R)-1-(tetrahydro-furan-2-yl)methyl]-amide], the EC50 in data set [1] lay within 300 to 1000 nM.

As to `N#Cc1ccc(Nc2ncc(C(=O)NCC3CCOCC3)c(C(F)(F)F)n2)cc1Cl` [Ex 217, 2-(4-Cyano-3-chloro-phenylamino)-4-trifluoromethyl-pyrimidine-5-carboxylic acid (tetrahydro-pyran-4-ylmethyl)-amide], in data set [2], the “Post-nanomilling 50% percentile particle size” value amounted to 0.34 μ, the “Post-nanomilling 95% percentile particle size” value is recorded as 1.30 μ, the “Pre-nanomilling 50% percentile particle size” value stood at 5.70 μ and the “Pre-nanomilling 95% percentile particle size” value was determined as 34.9 μ.

In the case of `O=C(NCC1CCCC1)c1cnc(Nc2ccc(F)c(Cl)c2)nc1C(F)(F)F` [Ex 247, 2-(3-Chloro-4-fluoro-phenylamino)-4-trifluoromethyl-pyrimidine-5-carboxylic acid cyclopentylmethyl-amide], in data set [2], the “Post-nanomilling 50% percentile particle size” value is given as 0.64 μ, the “Post-nanomilling 95% percentile particle size” value stood at 2.53 μ, the “Pre-nanomilling 50% percentile particle size” value stood at 13.2 μ and the “Pre-nanomilling 95% percentile particle size” value came out at 68.7 μ.

`O=C(NCC1CCCCC1)c1cnc(Nc2ccccc2)nc1C(F)(F)F` [Example 5] returned an EC50 in data set [1] of 20 to 300 nM.

As for `O=C(c1cnc(Nc2cccc(Br)c2)nc1C(F)(F)F)N1CCCCC1` [Example 12], in data set [1], the EC50 fell in the range of 20 to 300 nM.

Regarding `O=C(NCC1CCCCC1)c1cnc(Nc2cccc(F)c2)nc1C(F)(F)F` [Example 19, 2-(3-Fluorophenylamino)-4-trifluoromethylpyrimidine-5-arboxylic acid cyclohexylmethyl-amide], in data set [2], the “Post-nanomilling 50% percentile particle size” value came out at 0.40 μ, the “Post-nanomilling 95% percentile particle size” value amounted to 1.40 μ, the “Pre-nanomilling 50% percentile particle size” value was determined as 5.22 μ and the “Pre-nanomilling 95% percentile particle size” value is recorded as 25.5 μ.

In data set [1], `O=C(NC1CCSCC1)c1cnc(Nc2cccc(Cl)c2Cl)nc1C(F)(F)F` [Example 81, 2-(2,3-Diclorophenylamino)-4-trifluoromethyl-pyrimidine-5-carboxylic acid (tetrahydro-thiopyran-4-yl)-amide] gave an EC50 of 300 to 1000 nM.

For the compound `O=C(NCC1(O)CCCCC1)c1cnc(Nc2cccc(F)c2)nc1C(F)(F)F` [Example 86, 2-(3-Fluoropheny1-amino)4-trifluoro-methyl-pyrimidine-5-carboxylic acid(1-hydroxy-cyclohexyl-methyl)amide], the EC50 in data set [1] was in the range of 300 to 1000 nM.

`N#Cc1ccc(Nc2ncc(C(=O)NCC3CCCC3)c(C(F)(F)F)n2)cc1` [Example 176, 2-(4-Cyanophenylamino)-4-trifluoromethyl-pyrimidine-5-carboxylic acid cyclopentylmethyl-amide]: in data set [2], the “Post-nanomilling 50% percentile particle size” value is 0.33 μ, the “Post-nanomilling 95% percentile particle size” value was 1.78 μ, the “Pre-nanomilling 50% percentile particle size” value came out at 13.15 μ and the “Pre-nanomilling 95% percentile particle size” value stood at 68.7 μ.

`N#Cc1ccc(Nc2ncc(C(=O)NCC3CCC3)c(C(F)(F)F)n2)cc1Cl` [Example 197] came in with an EC50 in data set [1] of 20 to 300 nM.

Compound `CC(C)CNC(=O)c1cnc(Nc2cccc(Cl)c2)nc1C(F)(F)F` [Example 210] showed an EC50 in data set [1] of 20 to 300 nM.
